Publication doi:10.1101/2023.09.11.557219v1 (biorxiv, 2023)

Molecular target: SARS-CoV-2 M^pro (main protease, 3CL^pro, NSP5) (Severe acute respiratory syndrome coronavirus 2, UniProt P0DTD1)
Experiment: fluorogenic substrate cleavage, Morrison fit
Format: biochemical
Conditions: HEPES 25 mM pH 7.0; fluorogenic substrate SAE0180

## O=C(NCCN1CCCC1)N1c2ccccc2Sc2ccccc21 [compound 3, 4080]
  Ki: 80 µM
